Reference: PMC5082902, “Exported Epoxide Hydrolases Modulate Erythrocyte Vasoactive Lipids during Plasmodium falciparum Infection” (mBio, 2016)

What was measured:
Assay in all cases: ELISA of […]([…])-DHET diol product
Format in all cases: biochemical
Conditions in all cases: 6 or 12 uM EET, 100 ug enzyme in 100 ul PBS, 37 C, 1.5 h
PfEH2 [1] = biological target: T1, PfEH2 (Plasmodium falciparum, UniProt Q8IM75)
T1 construct: gene PF3D7_1401300; borders of the construct only in supplement

PfEH2 [2] = biological target: T1, PfEH2; remark: listed apart in the source
PfEH1 = biological target: T2, PfEH1 (Plasmodium falciparum, UniProt Q9Y013)
T2 construct: gene PF3D7_0301300; borders of the construct only in supplement
T2 sequence (Q9Y013 entry or part of it): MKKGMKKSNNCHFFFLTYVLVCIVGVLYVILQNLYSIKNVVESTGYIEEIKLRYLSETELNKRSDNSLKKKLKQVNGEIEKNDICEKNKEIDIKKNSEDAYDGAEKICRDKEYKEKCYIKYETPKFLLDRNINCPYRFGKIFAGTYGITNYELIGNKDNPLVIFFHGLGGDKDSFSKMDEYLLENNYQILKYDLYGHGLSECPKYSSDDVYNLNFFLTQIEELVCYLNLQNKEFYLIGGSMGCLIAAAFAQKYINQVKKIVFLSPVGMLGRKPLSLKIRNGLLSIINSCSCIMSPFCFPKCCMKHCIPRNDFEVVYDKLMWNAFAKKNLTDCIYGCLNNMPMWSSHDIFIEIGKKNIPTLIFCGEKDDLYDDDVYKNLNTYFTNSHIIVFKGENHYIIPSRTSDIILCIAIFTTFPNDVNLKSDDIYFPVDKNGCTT

T1 sequence (Q8IM75 entry or part of it): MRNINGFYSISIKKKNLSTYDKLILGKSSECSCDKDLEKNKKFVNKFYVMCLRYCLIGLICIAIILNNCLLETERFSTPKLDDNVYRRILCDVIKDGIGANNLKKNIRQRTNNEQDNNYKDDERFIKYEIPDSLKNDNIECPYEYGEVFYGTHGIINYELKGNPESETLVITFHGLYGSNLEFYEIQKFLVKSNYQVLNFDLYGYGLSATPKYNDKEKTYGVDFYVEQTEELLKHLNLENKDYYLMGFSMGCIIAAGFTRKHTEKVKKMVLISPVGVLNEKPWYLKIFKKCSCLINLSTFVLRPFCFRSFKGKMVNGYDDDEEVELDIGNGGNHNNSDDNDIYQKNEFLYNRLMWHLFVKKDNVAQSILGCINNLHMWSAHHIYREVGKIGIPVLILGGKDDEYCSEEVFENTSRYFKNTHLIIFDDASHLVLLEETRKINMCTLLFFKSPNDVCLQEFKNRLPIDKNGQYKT

SMILES: CCCCCC1OC1C/C=C\C/C=C\C/C=C\CCCC(=O)O (stereo not drawn) [14(15)-EET]
- ELISA of 14(15)-DHET diol product (PfEH2 [1]): Both recombinant PfEH1 and PfEH2 enzymes increased the formation of the diol product

SMILES: CCCCC/C=C\CC1OC1C/C=C\C/C=C\CCCC(=O)O (stereo not drawn) [11(12)-EET]
- ELISA of 11(12)-DHET diol product (PfEH2 [2]): Both recombinant PfEH1 and PfEH2 enzymes increased the formation of the diol product
- ELISA of 11(12)-DHET diol product (PfEH1): Both recombinant PfEH1 and PfEH2 enzymes increased the formation of the diol product
